Results on six molecules are retold here after ChEMBL document CHEMBL1944594, “Synthesis, biological evaluation, and docking studies of tetrahydrofuran- cyclopentanone- and cyclopentanol-based ligands acting at adrenergic α₁- and serotonine 5-HT1A receptors” (J Med Chem, 2012).

Assay [1] addresses T1, Alpha-1A adrenergic receptor (Rattus norvegicus) (UniProt P43140).
T1 sequence (whole entry): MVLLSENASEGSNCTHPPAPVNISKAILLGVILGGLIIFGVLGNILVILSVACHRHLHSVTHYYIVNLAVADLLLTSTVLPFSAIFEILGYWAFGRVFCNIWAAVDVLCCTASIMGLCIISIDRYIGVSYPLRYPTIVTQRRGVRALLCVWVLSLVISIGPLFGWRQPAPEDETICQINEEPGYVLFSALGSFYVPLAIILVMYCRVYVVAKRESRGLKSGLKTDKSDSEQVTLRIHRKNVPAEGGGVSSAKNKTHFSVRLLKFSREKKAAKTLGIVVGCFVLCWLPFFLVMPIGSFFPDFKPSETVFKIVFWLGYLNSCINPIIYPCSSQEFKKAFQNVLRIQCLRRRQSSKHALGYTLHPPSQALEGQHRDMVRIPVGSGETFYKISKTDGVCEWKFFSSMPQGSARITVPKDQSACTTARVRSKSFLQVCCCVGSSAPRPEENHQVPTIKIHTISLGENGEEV
The assay is described as follows: Antagonist activity at alpha1A adrenoceptor in Wistar rat prostatic vas deferens assessed as inhibition of (-)-noradrenalilne-induced contraction after 30 mins. It counts as functional, tissue-based.

The target of assay [2] is T2, Alpha-1B adrenergic receptor (Rattus norvegicus) (UniProt P15823).
T2 sequence (whole entry): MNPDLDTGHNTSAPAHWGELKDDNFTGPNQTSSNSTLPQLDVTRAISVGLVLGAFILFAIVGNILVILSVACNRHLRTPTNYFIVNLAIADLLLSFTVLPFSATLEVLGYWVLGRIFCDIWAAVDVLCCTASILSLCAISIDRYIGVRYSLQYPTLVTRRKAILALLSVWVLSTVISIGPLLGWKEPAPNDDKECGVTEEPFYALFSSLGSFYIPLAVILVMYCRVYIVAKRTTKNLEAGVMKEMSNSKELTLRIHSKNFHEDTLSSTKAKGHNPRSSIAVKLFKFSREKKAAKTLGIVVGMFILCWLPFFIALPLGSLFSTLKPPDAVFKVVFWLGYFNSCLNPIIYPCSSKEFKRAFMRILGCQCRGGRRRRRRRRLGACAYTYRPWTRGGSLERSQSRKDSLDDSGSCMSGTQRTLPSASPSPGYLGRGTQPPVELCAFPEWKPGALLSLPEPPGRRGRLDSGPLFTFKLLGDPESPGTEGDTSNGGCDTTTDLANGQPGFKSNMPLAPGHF
The assay is described as follows: Antagonist activity at Alpha-1B receptor in Wistar rat spleen assessed as inhibition of (-)-phenylephrine-induced contraction after 30 mins. It counts as functional, tissue-based.

Assay [3] has as its target T3, Alpha-1D adrenergic receptor (Rattus norvegicus) (UniProt P23944).
T3 sequence (whole entry): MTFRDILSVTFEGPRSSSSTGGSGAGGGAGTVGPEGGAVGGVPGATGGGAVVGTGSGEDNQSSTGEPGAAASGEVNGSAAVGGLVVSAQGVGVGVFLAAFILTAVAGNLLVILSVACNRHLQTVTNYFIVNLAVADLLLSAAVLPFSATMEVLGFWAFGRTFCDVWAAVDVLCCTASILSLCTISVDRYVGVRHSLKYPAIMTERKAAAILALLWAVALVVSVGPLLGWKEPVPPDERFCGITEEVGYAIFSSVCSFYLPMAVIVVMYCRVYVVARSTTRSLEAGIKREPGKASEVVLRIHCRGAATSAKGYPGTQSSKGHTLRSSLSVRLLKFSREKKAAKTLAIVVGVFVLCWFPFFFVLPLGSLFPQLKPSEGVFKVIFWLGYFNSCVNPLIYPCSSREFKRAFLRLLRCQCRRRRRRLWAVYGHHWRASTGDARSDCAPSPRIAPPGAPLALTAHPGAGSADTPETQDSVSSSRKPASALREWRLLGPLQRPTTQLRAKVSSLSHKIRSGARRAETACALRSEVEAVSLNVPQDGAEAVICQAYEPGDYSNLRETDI
The assay is described as follows: Antagonist activity at Alpha-1D adrenoceptor in Wistar rat endothelium denuded thoracic aorta assessed as inhibition of (-)-noradrenalilne-induced contraction after 30 mins. It is filed as functional, tissue-based.

In assay [4] the target is T4, 5-hydroxytryptamine receptor 1A (Homo sapiens) (UniProt P08908).
T4 sequence (whole entry): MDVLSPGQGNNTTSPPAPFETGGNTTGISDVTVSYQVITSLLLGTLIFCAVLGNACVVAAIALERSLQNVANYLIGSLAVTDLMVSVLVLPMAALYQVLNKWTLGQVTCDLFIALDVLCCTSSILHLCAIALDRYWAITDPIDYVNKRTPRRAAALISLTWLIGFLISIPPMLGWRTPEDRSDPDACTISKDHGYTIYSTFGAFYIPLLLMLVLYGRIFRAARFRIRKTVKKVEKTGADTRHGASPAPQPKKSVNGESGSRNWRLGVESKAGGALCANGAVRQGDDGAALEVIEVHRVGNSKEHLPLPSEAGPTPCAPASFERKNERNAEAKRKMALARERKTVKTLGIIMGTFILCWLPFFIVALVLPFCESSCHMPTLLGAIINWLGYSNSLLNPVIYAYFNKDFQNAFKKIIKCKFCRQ
The assay is described as follows: Agonist activity at human recombinant 5HT1A receptor expressed in HeLa cells preincubated for 20 mins by [35S]GTPgammaS binding assay relative to 8-OH-DPAT. It counts as functional, cell-based.

The target of assay [5] is T4, 5-hydroxytryptamine receptor 1A (Homo sapiens). As to conditions: HeLa.
In assay [6] the target is T5, Alpha-1A adrenergic receptor (Homo sapiens, UniProt P35348).
T5 sequence (P35348 whole entry): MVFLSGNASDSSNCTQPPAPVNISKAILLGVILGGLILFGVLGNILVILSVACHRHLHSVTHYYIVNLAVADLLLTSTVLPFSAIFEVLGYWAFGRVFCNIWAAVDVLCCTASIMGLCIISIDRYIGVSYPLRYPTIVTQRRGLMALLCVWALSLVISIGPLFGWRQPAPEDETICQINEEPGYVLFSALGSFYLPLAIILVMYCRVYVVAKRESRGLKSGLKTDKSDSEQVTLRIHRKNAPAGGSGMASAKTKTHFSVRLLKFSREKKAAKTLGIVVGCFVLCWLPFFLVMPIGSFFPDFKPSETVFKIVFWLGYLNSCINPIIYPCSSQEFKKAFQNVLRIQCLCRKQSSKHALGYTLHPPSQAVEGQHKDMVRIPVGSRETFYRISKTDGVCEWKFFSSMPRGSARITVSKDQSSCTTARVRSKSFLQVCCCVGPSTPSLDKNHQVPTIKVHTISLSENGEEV
The assay is described as follows: biochemical.
Description: Displacement of [3H]prazosin from human recombinant alpha1A adrenoceptor expressed in CHO cells after 30 mins by liquid scintillation counting

For assay [7], the target named is T6, Alpha-1B adrenergic receptor (Homo sapiens, UniProt P35368).
T6 sequence (P35368 whole entry): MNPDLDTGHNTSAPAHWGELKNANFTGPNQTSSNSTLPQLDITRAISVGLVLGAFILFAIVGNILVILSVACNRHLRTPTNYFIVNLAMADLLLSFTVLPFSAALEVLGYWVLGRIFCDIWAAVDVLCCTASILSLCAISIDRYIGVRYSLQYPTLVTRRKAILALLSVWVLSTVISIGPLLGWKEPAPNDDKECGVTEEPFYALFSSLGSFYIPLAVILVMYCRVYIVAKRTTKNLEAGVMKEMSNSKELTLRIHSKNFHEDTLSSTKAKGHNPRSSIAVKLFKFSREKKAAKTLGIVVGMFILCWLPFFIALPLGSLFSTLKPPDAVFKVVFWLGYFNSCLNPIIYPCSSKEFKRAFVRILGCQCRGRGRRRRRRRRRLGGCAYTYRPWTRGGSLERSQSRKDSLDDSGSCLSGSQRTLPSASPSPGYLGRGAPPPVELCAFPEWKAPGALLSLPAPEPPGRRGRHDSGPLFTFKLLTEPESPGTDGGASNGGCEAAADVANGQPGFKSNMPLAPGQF
The assay is described as follows: biochemical.
Description: Displacement of [3H]prazosin from human recombinant alpha1B adrenoceptor expressed in CHO cells after 30 mins by liquid scintillation counting

The target in assay [8] is T7, Alpha-1D adrenergic receptor (Homo sapiens, UniProt P25100).
T7 sequence (P25100 whole entry): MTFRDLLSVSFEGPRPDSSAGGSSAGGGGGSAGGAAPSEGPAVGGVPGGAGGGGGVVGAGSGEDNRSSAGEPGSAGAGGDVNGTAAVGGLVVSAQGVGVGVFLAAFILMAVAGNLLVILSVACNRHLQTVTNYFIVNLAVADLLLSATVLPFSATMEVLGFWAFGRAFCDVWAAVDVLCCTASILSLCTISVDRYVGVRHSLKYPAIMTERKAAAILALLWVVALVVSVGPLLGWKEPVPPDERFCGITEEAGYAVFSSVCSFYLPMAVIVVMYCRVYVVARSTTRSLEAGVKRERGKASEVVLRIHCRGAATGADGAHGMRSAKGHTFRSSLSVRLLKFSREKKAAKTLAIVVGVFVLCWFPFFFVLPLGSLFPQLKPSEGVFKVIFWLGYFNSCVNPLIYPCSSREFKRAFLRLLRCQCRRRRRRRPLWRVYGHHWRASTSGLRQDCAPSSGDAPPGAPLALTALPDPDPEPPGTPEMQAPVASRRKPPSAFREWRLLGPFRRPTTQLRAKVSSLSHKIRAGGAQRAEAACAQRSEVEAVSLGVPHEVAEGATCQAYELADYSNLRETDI
The assay is described as follows: biochemical.
Description: Displacement of [3H]prazosin from human recombinant Alpha-1D adrenoceptor expressed in CHO cells after 30 mins by liquid scintillation counting

In assay [9] the target is T8, 5-hydroxytryptamine receptor 1A (Homo sapiens, UniProt P08908).
T8 sequence (P08908 whole entry): T4 sequence (whole entry)
The assay is described as follows: biochemical.

`COc1ccccc1OCCNCC1COC(c2ccccc2)(c2ccccc2)O1` (stereo not drawn): the results for the pKb in [1], in assay [2] and in assay [3] were 7.53, 7.36 and 8.65, respectively. For the same molecule, in assay [4], the maximal effect (Emax) was 31.6%. In [5], this molecule came in with a pD2 of 7.36.
Consider `COc1ccccc1N1CCN(CC2CCC(c3ccccc3)(c3ccccc3)C2=O)CC1` (stereo not drawn), for which the negative-log Kb (pKb) in [1] stood at 6.28; in assay [2], 7.54; in [3], 6.43. Further, the Ki is 39.8 nM in assay [6], 141 nM in assay [7], 155 nM in [8] and 3.47 nM in assay [9].
As to `COc1ccccc1N1CCN(CC2CCC(c3ccccc3)(c3ccccc3)O2)CC1` (stereo not drawn), the figures for the negative-log Kb (pKb) in assay [1], in [2] and in assay [3] were 7.65, 6.85 and 7.5, respectively. Moreover, the inhibition constant (Ki) was 0.646 nM in assay [6], 8.91 nM in assay [7], 3.89 nM in assay [8] and 4.37 nM in [9].
Take `c1ccc(OCCNCC2COC(c3ccccc3)(c3ccccc3)O2)cc1` (stereo not drawn): the negative-log Kb (pKb) was found to be 6.16 in [1], 5.86 in [2] and 8.37 in assay [3]. In assay [4], the Emax was 24.4%. For the same molecule, the pD2 in [5] was 8.8.
`c1ccc(OCCNCC2CCC(c3ccccc3)(c3ccccc3)O2)cc1` (stereo not drawn): the pKb in [1] came out at 6.26; in assay [2], 6.2; in assay [3] it was 7.21. Also, the inhibition constant Ki is 53.7 nM in assay [6], 123 nM in assay [7], 31.6 nM in assay [8] and 2 nM in assay [9].
For the molecule `COc1ccccc1N1CCN(CCN2C(=O)CC3(CCCC3)CC2=O)CC1`, in [2], the negative-log Kb (pKb) worked out at 7.48. In addition, in assay [5], the pD2 was found to be 9.27.

As usually defined, the pKb is the negative decadic logarithm of the Kb, by convention in mol/L. Usually Emax stands for the greatest response seen or fitted, relative to the assay's reference. For orientation: Ki means a measure of affinity in units of concentration, obtained from inhibition or displacement. High values mean a looser hold on the target, low ones a stronger hold on the target.
